From patent publication US11472766B2, “Lipid nanoparticle composition” (Suzhou Abogen Biosciences Co., Ltd., priority 2020, dated 2022)

Columns and labels:
[1] = system: human erythropoietin (hEPO) mRNA; assay: Animal study: hEPO expression after tail vein injection of LNPs encapsulating hEPO mRNA (serum ELISA); type: in vivo; conditions: hEPO level, female ICR mice, 0.5 mg/kg, 6 hours post administration; for Expression at 6 h (μg/ml): class symbols, Table 3; for Expression at 6 h: Table 2
In short: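 Female ICR mice (6-8 weeks) received LNPs carrying hEPO mRNA by tail vein injection at 0.5 mg/kg, with MC3 LNPs dosed the same way as positive control. Blood was drawn at set times (e.g., 6 h) and serum separated. hEPO was quantified by ELISA and reported as μg/ml.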

[2] = Lipid nanoparticle size by dynamic light scattering (Malvern Zetasizer Nano ZS); type: physicochemical; conditions: LNP: cationic lipid/DSPC/cholesterol/PEG-lipid 50:10:38.5:1.5, hEPO mRNA
In short: (§1)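 Ribogreen fluorescence quantifies encapsulated mRNA and backscatter (173°) DLS sizes the particles. These are microfluidically mixed four-component LNPs in DPBS after dialysis.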

[3] = Encapsulation efficiency of lipid nanoparticles (Quant-it Ribogreen RNA quantification assay); type: physicochemical; conditions: LNP encapsulating hEPO mRNA
In short: as §1

[4] = Apparent pKa of LNP formulations (TNS fluorescence assay); conditions: LNP cationic lipid/DSPC/cholesterol/DMG-PEG 50/10/38.5/1.5 mol %
Protocol: The apparent pKa of each formulation was determined using an assay based on fluorescence of 2-(p-toluidino)-6-napthalene sulfonic acid (TNS). LNP formulations comprising of cationic lipid/DSPC/cholesterol/DMG-PEG (50/10/38.5/1.5 mol %) in PBS were prepared as described above. TNS was prepared as a 300 uM stock solution in distilled water. LNP formulations were diluted to 0.1 mg/ml total lipid in 3 mL of buffered solutions containing 50 mM sodium citrate, 50 mM sodium phosphate, 50 mM sodium borate, and 30 mM sodium chloride where the pH ranged from 3 to 9. An aliquot of the TNS solution was added to give a final concentration of 0.1 mg/ml and following vortex mixing fluorescence intensity was measured at room temperature in a Molecular Devices Spectramax iD3 spectrometer using excitation and mission wavelengths of 325 nm and 435 nm. A sigmoidal best fit analysis was applied to the fluorescence data and the pKa value was measured as the pH giving rise to half-maximal fluorescent intensity.

Structure (SMILES)	Expression at 6 h (μg/ml) [1]	polydispersity ([2]; Table 3)	size nm ([2]; Table 3)	Encapsulation Efficiency ([3]; Table 3)	Apparant Pka ([4]; Table 3)	Expression at 6 h [1]	polydispersity ([2]; Table 2)	size nm ([2]; Table 2)	Encapsulation Efficiency ([3]; Table 2)	Apparant Pka ([4]; Table 2)
CCCCCCCCCCCOC(=O)CCCCCN(CCCCCC(=O)NCC(CCCCCCCC)CCCCCCCC)CCN(CCO)C1CC1 [Compound 151]	C (≥0.1 and <1)	0.061	73.86 nm	94.0%	6.948	–	–	–	–	–
CCCCC/C=C\CCCC(=O)C(CC/C=C\CCCCC)C(CCC/C=C\CCCCC)OC(=O)CCCCCN(CCO)CCCCCC(=O)OCCC/C=C/CCCCC (stereo not shown) [Compound 100]	C (≥0.1 and <1)	0.208	58.6 nm	87.7%	6.187	–	–	–	–	–
CCCCCCCCCCCOC(=O)CCCCCN(CCCCCC(=O)OCC(CCCCCCCC)CCCCCCCC)CCN(CCO)C1CCCCCC1 [Compound 84]	B (≥1 and <2)	0.083	65.55 nm	93.2%	6.064	–	–	–	–	–
CCCCCCCCC(CCCCCCCC)COC(=O)CCCCCN(CCCCCC(=O)OCC(CCCCCCCC)CCCCCCCC)CCN(CCCCC)C1CCC(O)CC1 (stereo not shown) [Compound 74]	B (≥1 and <2)	0.076	54.58 nm	93.2%	6.2	–	–	–	–	–
CCCCCCCCC(CCCCCC)CNC(=O)CCCCCN(CCCCCC(=O)OCC(CCCCCC)CCCCCCCC)CCN(CCO)C1CC1 (stereo not shown) [Compound 109]	A (≥2)	0.06	73.52 nm	97.6%	6.633	–	–	–	–	–
CCCCCCCCC(CCCCCCCC)COC(=O)CCCCCN(CCCCCC(=O)OCC(CCCCCCCC)CCCCCCCC)CCN(CCO)C1CCOC1 (stereo not shown) [Compound 87]	A (≥2)	0.037	65.71 nm	91.2%	6.515	–	–	–	–	–
CCCCCCCCC(CCCCCC)CNC(=O)CCCCCN(CCCCCC(=O)NCC(CCCCCC)CCCCCCCC)CCN(CCO)C1CC1 (stereo not shown) [Compound 110]	C (≥0.1 and <1)	0.063	91.1 nm	90.0%	6.696	–	–	–	–	–
CCCCCCCCC(CCCCCC)COC(=O)CCCCCN(CCCCCC(=O)OCC(CCCCCC)CCCCCCCC)C(=O)CCCN(CCO)C1CCC1 (stereo not shown) [Compound 13]	C (≥0.1 and <1)	0.095	89.96 nm	96.8%	7.206	–	–	–	–	–
CCCCCCCCCCCOC(=O)CCCCCN(CCCCCC(=O)OCC(CCCCCCCC)CCCCCCCC)CCN(CCO)C1CCC1 [Compound 81]	A (≥2)	0.028	75.89 nm	94.6%	6.476	–	–	–	–	–
CCCCCCCCCCC(CCCCCC)COC(=O)CCCCN(CCCCC(=O)OCC(CCCCCC)CCCCCCCCCC)CCN(CCO)C1CCC1 (stereo not shown) [Compound 42]	C (≥0.1 and <1)	0.065	65.63 nm	96.4%	6.196	–	–	–	–	–
CCCCCCCCC(CCCCCC)CNC(=O)CCCCCN(CCCCCC(=O)NCC(CCCCCC)CCCCCCCC)CCN(CCO)C1CCC1 (stereo not shown) [Compound 118]	A (≥2)	0.057	62.72 nm	98.9%	6.523	–	–	–	–	–
CCCCCCCCC(CCCCCC)COC(=O)CCCCCN(CCCCCC(=O)OCC(CCCCCC)CCCCCCCC)CCN(CCO)C1CCCC1 (stereo not shown) [Compound 5]	–	–	–	–	–	0.25 µg/mL	0.029	54.0 nm	96.2%	6.24
CCCCCCCCC(CCCCCC)C(=O)OCCCCCCCCCN(CCCCCCCCCOC(=O)C(CCCCCC)CCCCCCCC)CCN(CCO)C1CCC1 (stereo not shown) [Compound 44]	B (≥1 and <2)	0.063	83.85 nm	97.5%	6.049	–	–	–	–	–
CCCCCCCCC(CCCCCC)COC(=O)CCCCCN(CCCCCC(=O)OCC(CCCCCC)CCCCCCCC)CCN(CCO)C1CCSCC1 (stereo not shown) [Compound 91]	B (≥1 and <2)	0.106	62.06 nm	92.1%	6.257	–	–	–	–	–
CCCCCCCCC(CCCCCC)COC(=O)CCCCCN(CCCCCC(=O)OCC(CCCCCC)CCCCCCCC)CCN(CCC)C1CCC(O)CC1 (stereo not shown) [Compound 56]	A (≥2)	0.07	85.46 nm	96.4%	6.466	–	–	–	–	–
CCCCCCCCC(CCCCCC)CC(=O)NCCCCCN(CCCCCNC(=O)CC(CCCCCC)CCCCCCCC)CCN(CCO)C1CC1 (stereo not shown) [Compound 113]	A (≥2)	0.04	90 nm	91.2%	6.728	–	–	–	–	–
CCCCCCCCC(CCCCCC)COC(=O)CCCCCN(CCCCCC(=O)OCC(CCCCCC)CCCCCCCC)CCN(C1CCCCC1)C1CC(O)C1 (stereo not shown) [Compound 92]	B (≥1 and <2)	0.04	66.94 nm	95.2%	6.331	–	–	–	–	–
CCCCCCCCC(CCCCCC)CC(=O)NCCCCCN(CCCCCNC(=O)CC(CCCCCC)CCCCCCCC)CCN(CCO)C1CCCCCC1 (stereo not shown) [Compound 116]	A (≥2)	0.201	79.28 nm	94.5%	6.795	–	–	–	–	–
CCCCCCCCC(CCCCCC)CNC(=O)NCCCCN(CCCCNC(=O)NCC(CCCCCC)CCCCCCCC)CCN(CCO)C1CCCCC1 (stereo not shown) [Compound 122]	A (≥2)	0.044	57.81 nm	89.4%	7.048	–	–	–	–	–
CCCCCCCCCC(CCCCCCCCC)COC(=O)CCCCCN(CCCCCC(=O)OCC(CCCCCCCCC)CCCCCCCCC)CCN(CCO)C1CCC1 [Compound 51]	A (≥2)	0.073	59.73 nm	94.10%	6.093	–	–	–	–	–
CCCCCCC(CCCCCC)CC(=O)NCCCCCN(CCCCCOC(=O)CC(CCCCCC)CCCCCC)CCN(CCO)C1CCCCC1 [Compound 152]	A (≥2)	0.026	92.17 nm	88.2%	6.686	–	–	–	–	–
CCCCCCCCC(CCCCCC)COC(=O)CCCCCN(CCCCCC(=O)OCC(CCCCCC)CCCCCCCC)CCN(CCO)C1CCCCCC1 (stereo not shown) [Compound 3]	–	–	–	–	–	2.63 µg/mL	0.060	58.7 nm	96.3%	6.22
CCCCCCCCC(CCCCCC)CC(=O)COCCCCN(CCCCCOC(=O)CC(CCCCCC)CCCCCCCC)CCN(CCO)C1CCCCCC1 (stereo not shown) [Compound 27]	C (≥0.1 and <1)	0.133	58.44 nm	96.7%	6.153	–	–	–	–	–
CCCCCCCCOC(CCCCCN(CCCCCC(=O)NCC(CCCCCC)CCCCCC)CCN(CCO)C1CCC1)OCCCCCCCC [Compound 150]	A (≥2)	0.06	66.33 nm	93.5%	6.918	–	–	–	–	–
CCCCCCCCC(CCCCCC)COC(=O)CCCCCN(CCCCCC(=O)OCC(CCCCCC)CCCCCCCC)CCN(CCO)C1CCCCC1 (stereo not shown) [Compound 2]	–	–	–	–	–	6.16 µg/mL	0.065	75.3 nm	96.8%	6.27
CCCCCCCCC(CCCCCCCC)COC(=O)CCCCCN(CCCCCC(=O)OCC(CCCCCCCC)CCCCCCCC)CCN(CCC)C1CCCC1O (stereo not shown) [Compound 68]	C (≥0.1 and <1)	0.052	56.96 nm	80.1%	6.279	–	–	–	–	–
CCCCCCCCC(CCCCCC)COC(=O)CCCCCN(CCCCCC(=O)OCC(CCCCCC)CCCCCCCC)CCN(CCO)C1CC1 (stereo not shown) [Compound 4]	–	–	–	–	–	0.48 µg/mL	0.068	57.5 nm	98.1%	5.87
CCCCCCCCC(CCCCCC)COC(=O)CCCCCN(CCCCCC(=O)OCC(CCCCCC)CCCCCCCC)CCN(C(C)C)C1CCC(O)CC1 (stereo not shown) [Compound 57]	A (≥2)	0.063	93.52 nm	96.1%	6.645	–	–	–	–	–
CCCCCCCCC(CCCCCC)COC(=O)CCCCCN(CCCCCC(=O)OCC(CCCCCC)CCCCCCCC)CCN(CCO)C1CCC1 (stereo not shown) [Compound 1]	–	–	–	–	–	16.21 µg/mL	0.168	76.5 nm	95.7%	6.40
